The source of these data is patent US10842807B2, “Methods of treating neurodegenerative disorders comprising DNA methyltransferase inhibitors” (Washington University, priority 2016, dated 2020).

Format in all cases: cell-based, mouse
Test [1] has as its system Htt-72Q-expressing primary striatal neurons. The test can be described thus: Neurofilament (NF) immunofluorescence, neurite degeneration in striatal neurons. Conditions: DIV 4 striatal neurons transduced, fixed seven days later; vs. Htt-72Q (0 μM). Here is the method: (§1) Mouse primary cortical and striatal neurons from embryonic day (E) 15.5 Swiss Webster mouse fetuses (Taconic) were first plated in the minimal essential medium (MEM) containing 10% FBS, 0.45% glucose, 1 mM sodium pyruvate, 2 mM glutamine, 20 U/ml penicillin and 20 μg/ml streptomycin, for 3 h and then maintained in serum-free Neurobasal medium (Life Technologies) containing NeuroCult™ SM1 neuronal supplement ([…] Technologies), 0.5 mM glutamine and 25 μM glutamate for the first 3 d in a humidified incubator (37° C. in 5% CO2). Half of the medium was replaced with Neurobasal medium with SM1 and 0.5 mM glutamine every 3 days. Primary cortical neurons plated on 96-well flat clear bottom black plates (Corning #3904) at 4×10^4 cells/well were infected with Htt exon1 expression lentivirus (Htt-25Q or Htt-72Q) or control empty vector lentivirus at 5 days in vitro (DIV 5). Primary striatal neurons plated on 96-well plates at 1×10^5 cells/well were infected with Htt exon1 expression lentivirus at DIV 4. Viral copy number was adjusted for transduction of neurons on the basis of titer measured using the Lenti-X qRT-PCR titration kit (Clontech), and equal numbers of viral particles of Htt-25Q and Htt-72Q expressing lentiviruses were used for transduction. […]
(§2) For the measurement of neurofilament (NF) immunofluorescence intensity, cortical and striatal neurons cultured in a 96-well plate were fixed in 4% paraformaldehyde (PFA) in PBS for 20 min nine and seven days after Htt lentiviral infection, respectively, permeabilized with 0.1% Triton X-100 in PBS for 15 min at room temperature, and subjected to indirect immunofluorescence with anti-NF (2H3) primary antibody and Alexa Fluor 568-conjugated goat anti-mouse IgG secondary antibody (Life Technologies). […] Following image background subtraction, the NF immunofluorescence intensity was quantified using an ImageJ-based macro. Image capture and quantification of Htt (EM48) immunofluorescence intensity were performed as described for those of NF. […] About 300 nuclei from three random fields in a well were counted. […]

Test [2] has as its system Htt-72Q-expressing primary cortical neurons. Nature of the test: Neurofilament (NF) immunofluorescence, neurite degeneration in cortical neurons. To be noted: fixed at DIV 14; vs. Htt-72Q (0 μM). As to the method: as §1, §2
Test [3] has the same test system. Nature of the test: MTS cell viability assay in Htt-expressing primary cortical neurons. To be noted: for viability of Htt-72Q-expressing neurons (MTS assay): MTS at DIV 14; for viability of mutant Htt-expressing neurons (MTS assay), validation of screen hits: 0.02, 0.2, 2 μM vs Htt-72Q (0 μM). Here is the method: Mouse primary cortical and striatal neurons from embryonic day (E) 15.5 Swiss Webster mouse fetuses (Taconic) were first plated in the minimal essential medium (MEM) containing 10% FBS, 0.45% glucose, 1 mM sodium pyruvate, 2 mM glutamine, 20 U/ml penicillin and 20 μg/ml streptomycin, for 3 h and then maintained in serum-free Neurobasal medium (Life Technologies) containing NeuroCult™ SM1 neuronal supplement ([…] Technologies), 0.5 mM glutamine and 25 μM glutamate for the first 3 d in a humidified incubator (37° C. in 5% CO2). Half of the medium was replaced with Neurobasal medium with SM1 and 0.5 mM glutamine every 3 days. Primary cortical neurons plated on 96-well flat clear bottom black plates (Corning #3904) at 4×10^4 cells/well were infected with Htt exon1 expression lentivirus (Htt-25Q or Htt-72Q) or control empty vector lentivirus at 5 days in vitro (DIV 5). Primary striatal neurons plated on 96-well plates at 1×10^5 cells/well were infected with Htt exon1 expression lentivirus at DIV 4. Viral copy number was adjusted for transduction of neurons on the basis of titer measured using the Lenti-X qRT-PCR titration kit (Clontech), and equal numbers of viral particles of Htt-25Q and Htt-72Q expressing lentiviruses were used for transduction. For the experiments to test effects of DNMT inhibitors, neurons were treated with inhibitors six hours after Htt lentiviral infection. One half of the media was changed every 3 days with media containing new drug. In knockdown experiments in Htt-expressing neurons, primary cortical neurons were cotransduced with Htt-expressing lentivirus and Dnmt shRNA or control shRNA lentivirus at DIV 5. pLKO.1-TRC1-luciferase (Luci) and pLKO.1-TRC2-LacZ were used as control for RNAi with pLKO.1-TRC1-Dnmt3a and pLKO.1-TRC2-Dnmt1, respectively. Lentiviral particles were prepared by transfecting 293LE cells with the lentiviral plasmid of interest along with packaging plasmid psPAX2 and envelope plasmid pCMV-SVG as described previously^86. Four days after transfection, viruses in the conditioned media were collected and purified using Lenti-X Concentrator (Clontech). Primary cortical neurons from BACHD mouse embryos (E15.5) were individually plated into separate wells and treated at DIV 4 with decitabine or vehicle for 3.5 days.
(In general: Formazan colour is commonly taken as a measure of viable cells.)

Test [4] has the same test system. Nature of the test: Epigenetic drug library screen, resazurin (Alamar Blue) assay. Conditions: 0.02, 0.2, 2 μM added at DIV 6, resazurin at DIV 14; hits validated by MTS.
Protocol: As epigenetic gene regulation is a cell-type specific mechanism, we used a physiologically relevant, post-mitotic cortical neuron culture system for this screen. In this system, lentivirus-mediated expression of the exon 1-encoded N-terminal fragment of mutant Htt (Htt-72Q with a 72 glutamine repeat), but not wild-type (WT) Htt (Htt-25Q), induces neurotoxicity^38. […] In the drug screen, the viability of Htt-expressing cortical neurons was determined by the resazurin (Alamar Blue) assay, a quantitative measurement of mitochondrial metabolic activity, which correlates with cell viability.
Epigenetic drug screen was performed using a primary cortical neuron model of HD with a drug library composed of 84 compounds (Table 1), among which 80 drugs are purchased from Cayman Chemical (Epigenetic Screening Library Item No 11076) and four drugs, SGC0946, EPZ5676, EPZ6438, and GSK126, were obtained from Xcessbio Biosciences Inc. Mouse primary cortical neurons were plated on 96-well flat clear bottom black plates (Corning #3904). WT or mutant Htt exon1 fragment (Htt-25Q or Htt-72Q)-expressing lentiviruses are infected at DIV 5 as described above. The 84 compounds were added to the media at DIV 6 one day after Htt lentiviral infection with three different doses (0.02, 0.2, 2 μM) for each compound at triplicates. DMSO was used as control. Media containing compounds or DMSO were changed every three days to maintain the compounds' activity. At DIV 14, the viability of neurons was determined by resazurin (Alamar blue) assay, a quantitative measurement of mitochondrial metabolic activity. The screen was fully automated and performed in the High-Throughput Screening Center in Washington University School of Medicine. Any possible plate effects were determined using control plates treated with DMSO and used for normalization. Screen hits were validated by MTS assay.

Turning to `Nc1ncn([C@@H]2O[C@H](CO)[C@@H](O)[C@H]2O)c(=O)n1` [5-azacytidine], the “mutant Htt-induced neurite degeneration (NF immunofluorescence intensity), striatal neurons” value in test [1] is “no significant difference in NF immunofluorescence intensity”. The “Htt-72Q-induced neurite degeneration (NF immunofluorescence intensity), cortical neurons” value in test [2] was “no significant difference in NF immunofluorescence intensity”. In test [3] (DIV 5 cortical neurons transduced with Htt lentivirus, treated with drug or DMSO (=0 μM), vs. Htt-72Q (0 μM)), the “viability of Htt-72Q-expressing neurons (MTS assay)” value is reported as “no significant difference in survival”.

Turning to `CNCc1ccc(-c2[nH]c3cc(F)cc4c3c2CCNC4=O)cc1` [AG-014699], in test [4], the “outcome in epigenetic drug screen (84 compounds)” value is given as “another screen hit”. Also, in test [3], the “viability of mutant Htt-expressing neurons (MTS assay), validation of screen hits” value is on record as “no significant difference in survival”.

Turning to `CC(=O)Nc1ccc(NC(=S)NC(=O)c2ccc(C(C)(C)C)cc2)cc1` [Tenovin-1], in test [4], the “outcome in epigenetic drug screen (84 compounds)” value is “one of the top three positive compounds”. In addition, the “viability of mutant Htt-expressing neurons (MTS assay), validation of screen hits” value in test [3] is “did not significantly increase the viability of mutant Htt-expressing neurons”.

B1: BDNF: recombinant BDNF protein added in the culture medium (protein, UniProt P23560 19-247, looked up)
Neurotrophic factor BDNF …: APMKEANIRGQGGLAYPGVRTHGTLESVNGPKAGSRGLTSLADTFEHVIEELLDEDQKVRPNEENNKDADLYTSRVMLSSQVPLEPPLLFLLEEYKNYLDAANMSMRVRRHSDPARRGELSVCDSISEWVTAADKKTAVDMSGGTVTVLEKVPVSKGQLKQYFYETKCNPMGYTKEGCRGIDKRHWNSQCRTTQSYVRALTMDSKKRIGWRFIRIDTSCVCTLTIKRGR
As to B1, the “viability of Htt-72Q-expressing neurons (MTS assay)” value in test [3] (cultured with recombinant BDNF 50 ng/ml, vs. Htt-72Q with vehicle) is given as “increased the viability of Htt-72Q-expressing neurons”.
